Experimental data: US6485941B1, “Inhibition of the carboxyltransferase component of acetyl-CoA carboxylase, and the use of such inhibition in anti-cancer and anti-lipogenic therapies” (Board of Supervisors of Louisiana State University and …, priority 2002, dated 2002)

Key:
[1] = target: T1, murine acetyl-CoA carboxylase (Mus musculus, UniProt Q5SWU9); experiment: Acetyl-CoA carboxylase activity in cell-free extracts of pre-adipocytes, compound added to extract; type: biochemical
T1 construct: endogenous in cells; host or cells: murine 3T3-L1 pre-adipocytes (cytosolic extract)
Method: (§1) The above procedure was modified to prepare extracts for enzymatic analysis. The non-denaturing buffer in that case contained 150 mM KCl instead of NaCl, and there was no Triton X-100, Nonidet P-40, nor any protease or phosphatase inhibitors in the buffer. The cell monolayers were scraped into this buffer, and were homogenized with 16 strokes in a Dounce homogenizer. The homogenates were centrifuged at 10,000 g for 5 minutes, and the supernatants were saved as cytosolic extract, quantitated, and used to assay acetyl-CoA carboxylase activity.
The activity of acetyl-CoA carboxylase from 3T3-L1 cell lysates was determined in a fixed-time assay using HPLC. HPLC is not normally used in this field, because cell lysates are mixtures of such a large number of different components; it would be more conventional to use an assay employing radioactivity. […] This assay will be useful in monitoring the progress and reaction of patients who are administered treatment in accordance with this invention.
(§2) Assays were performed by measuring the loss of acetyl-CoA, or the production of malonyl-CoA, at 5 minute intervals for 20 minutes, using reverse-phase HPLC. […] Rates were calculated by linear regression analysis of malonyl-CoA concentration as a function of time. […] Following termination of the reaction, the samples were centrifuged (3 min, 10,000 g) and then analyzed by HPLC. […]

3T3-L1 pre-adipocytes = experiment: 3T3-L1 adipocyte differentiation (Western blot of transcription factors, Oil Red O staining); type: cell-based, murine
Method: Murine 3T3-L1 pre-adipocytes (a kind gift from Howard Green, Harvard University, Cambridge, Mass.) were plated and grown to 2 days post-confluence in DMEM supplemented with 10% bovine serum. Medium was changed every 48 hours. Cells were induced to differentiate into adipocytes by changing the medium to DMEM supplemented with 10% fetal bovine serum (FBS), 0.5 mM 3-isobutyl-1-methylxanthine (MIX) (Sigma), 1 μM dexamethasone (DEX) (Sigma), and 1.7 μM insulin (Sigma). After 48 hours this medium was replaced with DMEM supplemented with 10% FBS, and the cells were maintained in this medium until they were used in experiments. Compound 2 was dissolved in DMSO and added to the cell culture media at a 1:1000 dilution for experiments. Vehicle additions were also conducted for each experiment as controls.
Monolayers of 3T3-L1 adipocytes were rinsed with phosphate-buffered saline (PBS) and then harvested in a non-denaturing buffer containing 150 mM NaCl, 10 mM Tris, pH 7.4, 1 mM EGTA, 1 mM EDTA, 1% Triton-X 100, 0.5% Nonidet P-40 detergent (Sigma), 1 μM PMSF (phenylmethylsulfonyl fluoride protease inhibitor, Sigma), 1 μM pepstatin (Sigma), 50 trypsin inhibitory milliunits of aprotinin (Sigma), 10 μM leupeptin (Sigma), and 2 mM sodium vanadate (Fisher Chemical, Fair Lawn, […]) for Western blot analysis. Samples were extracted for 30 minutes on ice and centrifuged at 10,000 g at 4° C. for 15 minutes. Supernatants containing whole cell extracts were analyzed for protein content using a BCA kit (Pierce) according to the manufacturer's instructions.
Proteins were separated in 5%, 7.5%, or 12% polyacrylamide (National Diagnostics, […].) gel containing sodium dodecyl sulfate (SDS) following the procedure of U. Laemmli, Nature 227, 680-685 (1970). Proteins were then transferred to nitrocellulose (BioRad, Atlanta, Ga.) in 25 mM Tris, 192 mM glycine, and 20% methanol. Following transfer, the membrane was blocked in 4% milk (non-fat, dried milk reconstituted in water at a 4% concentration (w/v)) for 1 hour at room temperature. Results were visualized with horseradish peroxidase (HRP)-conjugated secondary antibodies (Sigma) and enhanced chemiluminescence (Pierce).
The murine 3T3-L1 pre-adipocyte cell line was used to examine the effects of Compound 2 on adipocyte differentiation. The 3T3-L1 cell line can be induced to differentiate in culture from fibroblasts, or pre-adipocytes, into cells with the morphological and biochemical properties of adipocytes. […] For example, these cells accumulate lipids, respond to insulin, and secrete leptin. The 3T3-L1 pre-adipocytes were first grown to a confluent monolayer. At two days post-confluence, the cells were exposed to a “differentiation cocktail” (FBS, MIX, DEX, and insulin) for 48 hours, and the cells were then maintained in 10% FBS in DMEM in the presence or absence of various doses of Compound 2. A vehicle addition of DMSO was also performed as a control. Compound 2 or DMSO was added in a 1-to-1000 dilution to the cell culture medium every 24 hours. One week after treatment with the differentiation cocktail, whole cell extracts were prepared, and cells were stained with Oil Red O to assess lipid accumulation.
The differentiation of pre-adipocytes into adipocytes has been attributed, in part, to increased expression of several transcription factors, including PPARγ and STATs 1, 5A, and 5B. To observe the differentiation of pre-adipocytes into adipocytes, the expression of these transcription factors was examined by Western blot analysis (data not shown). Adipogenesis was also assessed by examining lipid accumulation, as judged by Oil Red O staining (data not shown).
Whole cell extracts were prepared one week after the induction of differentiation in the presence of 0, 1, 2, 4, 8, or 17 μM doses of Compound 2, or treatment with DMSO (vehicle), with treatments in each case repeated every 24 hours. […]

[2] = tested on: breast cancer cell line MCF7; experiment: MCF7 cellular proliferation (counting viable cells as a function of time); type: cell-based; settings: preliminary data; number of viable cells as a function of time
Excerpt: Cancer cells also typically have high levels of fatty acid synthesis. Various inhibitors of fatty acid synthesis are currently in clinical trials for the treatment of breast cancers. Since acetyl-CoA carboxylase—not fatty acid synthase—is the rate-limiting enzyme in fat synthesis, the inhibition of acetyl-CoA carboxylase with the bisubstrate analog should be at least as effective in treating cancers as fatty acid synthesis inhibitors, if not more so.

acetyl-CoA carboxylase = target: T2, acetyl-CoA carboxylase (Mus musculus, UniProt Q5SWU9); experiment: Acetyl-CoA carboxylase activity in lysates of treated pre-adipocytes (HPLC fixed-time assay); type: cell-based, murine; settings: pre-adipocytes treated with 10 μM for four hours; DMSO control 1.40 nmol/min-mg
T2 construct: endogenous in cells; host or cells: murine 3T3-L1 pre-adipocytes (cytosolic extract)
Method: as §1
The activity of acetyl-CoA carboxylase from 3T3-L1 cell lysates was determined in a fixed-time assay using HPLC. HPLC is not normally used in this field, because cell lysates are mixtures of such a large number of different components; it would be more conventional to use an assay employing radioactivity. […]
as §2
We also examined whether there was a concomitant decrease in the activity of acetyl-CoA carboxylase. […] Acetyl-CoA carboxylase activity was measured by analytical reverse phase HPLC. […]

[3] = target: T3, carboxyltransferase component of E. coli acetyl-CoA carboxylase (Escherichia coli, UniProt P0A9Q5+P0ABD5); experiment: Carboxyltransferase inhibition, assayed in the reverse direction with coupled spectrophotometric detection; type: biochemical
T3 construct: made in house; host or cells: E. coli overexpression strain (Blanchard et al. 1998; G. Waldrop, LSU)
T3 sequence (P0ABD5 1-319): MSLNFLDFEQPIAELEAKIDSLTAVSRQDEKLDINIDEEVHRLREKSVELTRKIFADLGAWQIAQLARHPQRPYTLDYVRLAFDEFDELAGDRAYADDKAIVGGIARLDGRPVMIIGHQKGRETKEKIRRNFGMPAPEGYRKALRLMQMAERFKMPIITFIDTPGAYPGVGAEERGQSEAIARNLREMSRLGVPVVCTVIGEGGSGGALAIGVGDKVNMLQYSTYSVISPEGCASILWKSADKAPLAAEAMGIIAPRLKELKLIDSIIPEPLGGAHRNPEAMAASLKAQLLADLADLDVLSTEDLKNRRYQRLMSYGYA
T3 sequence (P0A9Q5 1-304): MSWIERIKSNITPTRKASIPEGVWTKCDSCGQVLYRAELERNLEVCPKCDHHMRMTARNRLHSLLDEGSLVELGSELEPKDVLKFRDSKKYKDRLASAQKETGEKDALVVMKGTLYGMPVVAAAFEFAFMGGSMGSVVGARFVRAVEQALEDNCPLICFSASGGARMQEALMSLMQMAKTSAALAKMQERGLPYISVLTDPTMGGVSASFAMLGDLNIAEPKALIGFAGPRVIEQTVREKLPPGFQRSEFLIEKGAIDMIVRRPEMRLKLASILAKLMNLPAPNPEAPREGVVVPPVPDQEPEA
Method: Carboxyltransferase was purified from a strain of E. coli that overexpresses the genes encoding the α and β subunits of the enzyme. C. Blanchard et al., J. Biol. Chem. 273, 19140-19145 (1998). (E. coli strain available on request from G. Waldrop, Department of Biological Sciences, Louisiana State University, Baton Rouge, La.) The published procedure was modified slightly. Bacteria were grown to saturation at 37° C. in 1 L of LB medium in 2 L flasks, and were then induced with 1 g of lactose and incubated without shaking at 25° C. for 24 h. The concentration of carboxyltransferase was determined by the method of M. Bradford, Anal. Biochem. 72, 248-254 (1976) using bovine serum albumin as a standard.
(§3) Carboxyltransferase was assayed in the reverse direction: the production of acetyl-CoA was detected by using the coupling enzymes malate dehydrogenase and citrate synthase, and the reduction of NAD^+ was measured spectrophotometrically by the method of C. Blanchard et al., J. Biol. Chem. 273, 19140-19145 (1998); and R. Guchhait et al., Methods Enzymol. 35, 32-37 (1975).
In Equations [1] and [2], v is the initial velocity, Vm is the maximal velocity, A is the substrate concentration, I is the concentration of inhibitor, Km is the Michaelis constant, Kis is the slope inhibition constant, and Kii is the intercept inhibition constant.
v=VmA/(Km(1+I/Kis)+A(1+I/Kii))
The activity of carboxyltransferase was measured in the reverse direction using malonyl-CoA and biocytin as substrates.

malate dehydrogenase = experiment: Coupling enzyme control (NAD+ reduction after addition of acetyl-CoA); type: biochemical; settings: 0.6 mM compound
Method: as §3
(§4) The bisubstrate analog had previously been observed not to inhibit the activity of either of these coupling enzymes at 0.6 mM, a value three times higher than the highest concentration used in the inhibition studies.

citrate synthase = experiment: as above; type: biochemical; settings: 0.6 mM compound
Method: as §3, §4

| Compound | effect on acetyl-CoA carboxylase activity in cell-free extracts [1] | adipocyte differentiation of 3T3-L1 cells (3T3-L1 pre-adipocytes; 0, 1, 2, 4, 8 or 17 μM, repeated every 24 hours, one week) | induction of PPARγ expression (Western blotting) (3T3-L1 pre-adipocytes; 17 μM or 8 μM) | lipid accumulation (Oil Red O staining) (3T3-L1 pre-adipocytes; 17 μM or 8 μM) | levels of STAT3 (3T3-L1 pre-adipocytes; Western blot) | expression of STATs 1 and 5A (3T3-L1 pre-adipocytes; Western blot, during induced differentiation) | reversibility of inhibition of differentiation (3T3-L1 pre-adipocytes; compound not re-added at 24 hour intervals after initial treatment) | cellular proliferation of MCF7 [2] | activity of acetyl-CoA carboxylase from treated cells (acetyl-CoA carboxylase) [nmol malonyl-CoA/min-mg] | Km ([3]; substrate of carboxyltransferase, reverse direction) [mM] | Ki [3] [µM] | binding energy of the inhibitor relative to the sum of binding energies of the two substrates (times less) [3] | factor by which the product of the substrate dissociation constants exceeds the inhibition constant ([3]; Km of malonyl-CoA and biocytin used as dissociation constants) | inhibition pattern with malonyl-CoA as the variable substrate ([3]; biocytin held constant at 6.0 mM) | inhibition pattern with biocytin as the variable substrate ([3]; malonyl-CoA held constant at 0.1 mM) | inhibition of coupling enzyme malate dehydrogenase (malate dehydrogenase) | inhibition of coupling enzyme citrate synthase (citrate synthase) |
| --- | --- | --- | --- | --- | --- | --- | --- | --- | --- | --- | --- | --- | --- | --- | --- | --- | --- |
| phenylmethyl 5-(6,8-diaza-6-(2-X-acetyl)-7-oxo-3-thiabicyclo[3.3.0]oct-2-yl)pentanoate [Compound 2] | had no effect | inhibited adipocyte differentiation of 3T3-L1 cells in a dose-dependent manner | blocked the induction of PPARγ expression | blocked lipid accumulation | unaffected | inhibited in a dose-dependent manner | reversible | inhibited cellular proliferation in that cell line in a dose-dependent manner | 0.30 |  |  |  |  |  |  |  |  |
| N[C@@H](CCCCNC(=O)CCCC[C@@H]1SC[C@@H]2NC(=O)N[C@@H]21)C(=O)O [biocytin] |  |  |  |  |  |  |  |  |  | 8 |  |  |  |  |  |  |  |
| CC(C)(COP(=O)(O)OP(=O)(O)OCC1OC(n2cnc3c(N)ncnc32)C(O)C1OP(=O)(O)O)C(O)C(=O)NCCC(=O)NCCSCC(=O)N1C(=O)NC2C(CCCCC(=O)OCc3ccccc3)SCC21 (stereo not drawn) [Compound 1] | inhibited murine acetyl-CoA carboxylase activity |  |  |  |  |  |  |  |  |  | 23 ± 2 | about 1.3 | about 35 | competitive inhibition | noncompetitive inhibition | No decrease in activity | No decrease in activity |
